For orientation: pIC50 means the negative decadic logarithm of the IC50, by convention in mol/L. A lower pIC50 goes with a large IC50.

For the experiment, the target named is T1, human metabotropic Glutamate 4 receptor (Homo sapiens, UniProt Q14833).
T1 construct: expressed in transfected cells; host or cells: HEK293
The experiment can be described thus: In vitro testing of mGluR4 potency (Assay A), cAMP HTRF in HEK293 cells. It counts as cell-based. Conditions: for pIC50: HEK293 cell overexpressing human mGluR4, 10 uM L-Glutamic acid, 1 uM forskolin. Here is the method: A. In Vitro Testing of mGluR4 Potency
The in vitro activity of the compounds according to the invention may be investigated as follows:
The HEK293 cell overexpressing the human metabotropic Glutamate 4 receptor were thawed at 37° C. and immediately diluted with cell culture medium. After centrifugation, the cell pellet is re-suspended in medium and then distributed from a stirred spinner flask into the wells of the assay plate. The plates are incubated for one hour at room temperature before they are incubated for 24 hours at 37° C./5% C02. After washing the cells in the plate three times with 80 uL HBSS/HEPES buffer (10 uL buffer remained in the wells after washing), 5 uL per well of compounds diluted in HBSS/HEPES buffer containing 0.2% BSA (final concentration: 0.1%) and 1 mM IBMX (final concentration: 0.5 mM) are added to the wells of the assay plate. Thereafter 5 uL per well of L-Glutamic acid (final concentration: 10 uM), forskolin (final concentration: 1 uM) and 1 mM IBMX (final concentration: 0.5 mM) dissolved in HBSS/HEPES buffer containing 0.2% BSA (final concentration: 0.1%) are added to the assay plate (final DMSO concentration: 1%). Several wells of the assay plate are used either for the positive and the negative controls or for the cAMP standard curve. The assay plate is incubated for 30 minutes at room temperature. Then 5 ul per well of Anti-cAMP-Antibody-d2 solution and 5 ul per well of cAMP-Europium Cryptate dilution are added to all wells of the plate and the plate is incubated another 60 minutes light protected at room temperature. The emission at 615 nm and 665 nm (Excitation wavelength: 320 nm) are measured on the EnVision™ reader (PerkinElmer). The ratio between the emission at 665 nm and 615 is calculated by the reader. The whole assay is performed in the dark or under green light.
The cAMP standard is prepared by diluting the cAMP stock solution with HBSS/Hepes buffer: 5 μl/well of the cAMP dilutions (in HBSS/Hepes buffer containing 1 mM IBMX and 0.2% BSA-final concentration: 0.5 mM IBMX and 0.1% BSA) are added to 10 ul/well HBSS/Hepes buffer plus 5 ul/well 4% DMSO in HBSS/Hepes containing 0.2% BSA (final DMSO concentration: 1%-like in the wells containing compounds) in the wells of the assay plate. The final cAMP concentrations in the assay plate were: 0, 0.17, 0.69, 2.78, 11.1, 44.5, 178, and 712 nM (two wells/cAMP concentration).
Each assay microtiter plate contained also wells with vehicle controls instead of compound as controls for L-Glutamic acid induced signal (negative control; 100% CTL; 10 uM L-Glutamic acid+1 uM forskolin+0.5 mM IBMX+1% DMSO) and wells with vehicle controls without L-Glutamic acid as controls for non-specific changes in signal (positive control; 0% CTL; 0 uM L-Glutamic acid+1 uM forskolin+0.5 mM IBMX+1% DMSO).
The analysis of the data is performed by the calculation the ratio between the emission at 665 nm and the emission at 615 nm (Em665/Em615 ratio). Thereafter the signals of the compounds are normalized using the positive and negative controls by the following formula:
PoC=100×((Signal Sample−Positive Control)/(Negative Control−Positive Control))
(Time-resolved FRET reads energy transfer from a long-lived donor to a nearby acceptor.)

The structures appear in SMILES notation. pIC50: −log10 of the molar value.

T1 sequence (Q14833 33-912): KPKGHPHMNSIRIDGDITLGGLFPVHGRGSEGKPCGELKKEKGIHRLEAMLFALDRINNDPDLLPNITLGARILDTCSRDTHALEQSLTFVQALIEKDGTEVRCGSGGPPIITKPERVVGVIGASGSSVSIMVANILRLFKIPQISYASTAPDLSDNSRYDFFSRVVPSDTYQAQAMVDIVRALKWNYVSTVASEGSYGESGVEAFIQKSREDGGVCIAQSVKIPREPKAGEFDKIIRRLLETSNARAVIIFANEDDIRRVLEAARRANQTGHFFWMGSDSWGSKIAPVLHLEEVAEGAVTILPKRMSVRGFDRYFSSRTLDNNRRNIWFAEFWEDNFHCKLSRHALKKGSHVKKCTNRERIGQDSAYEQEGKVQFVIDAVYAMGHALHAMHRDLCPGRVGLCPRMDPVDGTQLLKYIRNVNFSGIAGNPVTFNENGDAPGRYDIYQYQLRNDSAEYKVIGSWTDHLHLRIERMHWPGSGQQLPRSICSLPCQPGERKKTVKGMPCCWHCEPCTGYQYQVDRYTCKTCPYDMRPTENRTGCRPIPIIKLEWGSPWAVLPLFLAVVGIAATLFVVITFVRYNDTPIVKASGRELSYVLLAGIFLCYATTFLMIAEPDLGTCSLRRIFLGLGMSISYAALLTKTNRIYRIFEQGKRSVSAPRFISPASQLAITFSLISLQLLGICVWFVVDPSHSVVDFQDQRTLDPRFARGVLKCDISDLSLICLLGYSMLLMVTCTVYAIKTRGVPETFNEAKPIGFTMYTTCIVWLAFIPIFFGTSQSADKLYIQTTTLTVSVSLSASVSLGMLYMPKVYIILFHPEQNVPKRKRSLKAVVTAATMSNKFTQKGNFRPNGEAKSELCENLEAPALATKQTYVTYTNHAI

Consider `CCn1c([C@@H](NC(=O)c2cnc(C(F)F)cn2)C2CC2)nc2cnc(C(F)(F)F)cc21` [Example 49, N-[(S)-cyclopropyl[1-ethyl-6-(trifluoromethyl)-1H-imidazo[4,5-c]pyridin-2-yl]methyl]-5-(difluoromethyl)pyrazine-2-carboxamide], for which the negative-log IC50 (pIC50) (Table 2) was 7.28.
Same read-out and setting: in the case of `Cc1cnc(C(=O)N[C@H](c2nc3cnc(C(F)(F)F)cc3n2C(C)C)[C@@H]2COCCO2)cn1` [Example 50, N-[(R)-[(2R)-1,4-dioxan-2-yl][1-(propan-2-yl)-6-(trifluoromethyl)-1H-imidazo[4,5-c]pyridin-2-yl]methyl]-5-methylpyrazine-2-carboxamide] it was 7.10.
As to `Cn1nccc1C(=O)N[C@H](c1nc2ccc(Br)nc2[nH]1)[C@H]1CC[C@H](C)CC1` [Intermediate 213 in WO2019/138017 (regioisomere 2), reference compound], the “activity as mGluR4 modulators in Assay A (in words)” value is “no therapeutically relevant activity”. The compound also gave a negative logarithm of the IC50 (pIC50) (Table 1) of 4.88.
